Test results reported in US9790221B2, “Heteroaryl compounds as IRAK inhibitors and uses thereof” (Merck Patent GmbH, priority 2014, dated 2017).

How the values were obtained:
IRAK4 = IRAK4 (Homo sapiens (Human), UniProt Q9NWZ3); assay: IRAK4 enzymatic assay; assay type: biochemical
How it was run: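 Radiometric streptavidin FlashPlate read: 3 h, 30° C incubation of His-TEV-IRAK4 (20 ng/well), STK1-biotin substrate (300 nM) and ATP (2 μM, [^33P]-labelled) in Hepes pH 7.0, MgCl2 10 mM, MnCl2 5 mM. Compounds from 20 µM down to 1 nM, 2% DMSO controls; reaction quenched with EDTA.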

[1] = target: IRAK1 (His-TEV-IRAK1 (194-712)) (Homo sapiens (Human), UniProt P51617); assay: IRAK1 enzymatic assay; assay type: biochemical
How it was run: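 Compounds ([…] down to 1 nM) were incubated 3 h at 30° C with His-TEV-IRAK1 (194-712, 15 ng/well) and 1 μM [33P]-labelled ATP in 50 mM Hepes pH 7.0, 10 mM MgCl2. After EDTA stop and washing, the retained autophosphorylation signal was measured by scintillation in streptavidin-coated plates.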

[2] = system: TLR7 induced IL-6 secretion in human mononuclear cells (PBMC's); assay: TLR7 induced IL-6 in human PBMC's; assay type: cell-based; settings: Homo sapiens, PBMC, read-out: TLR7 induced IL-6 secretion in hPBMC's (IC50)
How it was run: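 Fresh or frozen healthy-donor PBMCs preincubated 30 min at 37° C. with compound (25 uM to 0.4 nM; vehicle 0.25% DMSO) in RPMI/10% HI-FBS. Stimulated with TLR7 ligand (2 uM) for 16-18 h at 37° C.; supernatant IL-6 measured by AlphaLISA.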

Sequence of IRAK4 (Q9NWZ3 whole entry): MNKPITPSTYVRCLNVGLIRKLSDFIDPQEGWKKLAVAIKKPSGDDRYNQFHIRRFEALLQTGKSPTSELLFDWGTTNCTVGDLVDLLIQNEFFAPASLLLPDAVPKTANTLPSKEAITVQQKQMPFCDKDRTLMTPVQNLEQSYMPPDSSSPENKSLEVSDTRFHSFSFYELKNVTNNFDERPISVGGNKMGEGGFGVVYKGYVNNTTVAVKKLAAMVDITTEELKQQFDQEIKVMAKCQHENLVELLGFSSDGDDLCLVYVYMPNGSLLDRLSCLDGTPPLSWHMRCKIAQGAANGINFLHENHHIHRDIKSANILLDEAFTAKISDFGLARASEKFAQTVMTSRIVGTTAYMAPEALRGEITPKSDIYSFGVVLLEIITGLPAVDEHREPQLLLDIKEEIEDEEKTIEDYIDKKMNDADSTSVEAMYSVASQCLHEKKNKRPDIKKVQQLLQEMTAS
Sequence of IRAK1 (His-TEV-IRAK1 (194-712)) (P51617 194-712): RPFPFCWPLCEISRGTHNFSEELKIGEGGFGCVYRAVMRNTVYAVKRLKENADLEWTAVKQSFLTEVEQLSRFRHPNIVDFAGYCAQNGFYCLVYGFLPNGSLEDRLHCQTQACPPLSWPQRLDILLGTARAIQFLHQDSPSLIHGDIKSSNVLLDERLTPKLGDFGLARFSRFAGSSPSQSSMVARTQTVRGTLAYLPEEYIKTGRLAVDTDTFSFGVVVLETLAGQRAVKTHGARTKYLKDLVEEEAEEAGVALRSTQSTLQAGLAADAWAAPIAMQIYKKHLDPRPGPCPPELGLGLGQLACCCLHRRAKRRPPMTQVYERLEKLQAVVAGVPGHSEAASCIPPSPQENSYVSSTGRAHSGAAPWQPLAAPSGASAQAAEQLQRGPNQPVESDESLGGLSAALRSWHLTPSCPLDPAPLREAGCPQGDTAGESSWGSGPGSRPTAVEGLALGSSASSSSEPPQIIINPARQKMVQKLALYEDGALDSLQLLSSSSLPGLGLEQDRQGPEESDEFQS

SMILES	IC50 (IRAK4) [nM]	IC50 [1] [nM]	IC50 [2] [nM]
Cc1nnc(-c2cnc(-c3cccc(-c4cnn(C)c4)c3)nc2NC2CCC(N)CC2)s1 (stereo not drawn) [Example 128]	< 100	100 to 1000	100 to 1000
Cc1nnc(-c2cnc(-c3cccc(-c4cnn(C)c4)c3)nc2N[C@H]2CC[C@@H](NS(C)(=O)=O)CC2)s1 [Example 129]	< 100	100 to 1000	100 to 1000
Cn1cc(-c2cccc(-c3ncc(-c4cnn(C)c4)c(NCCC(C)(C)O)n3)c2)cn1 [Example 135]	< 100	100 to 1000	100 to 1000
Cn1cc(-c2cccc(-c3ncc(-c4cnn(C)c4)c(NCC4CCC(F)(F)CC4)n3)c2)cn1 [Example 136]	< 100	100 to 1000	1000 to 5000
Cn1cc(-c2cccc(-c3ncc(-c4cnn(C)c4)c(NC4CCOCC4)n3)c2)cn1 [Example 137]	< 100	100 to 1000	100 to 1000
Cn1cc(-c2cccc(-c3ncc(-c4ccn(C)n4)c(NC4CCOCC4)n3)c2)cn1 [Example 138]	< 100	1000 to 5000	1000 to 5000
CN(CC1CC(F)(F)C1)c1nc(-c2cccc(-c3cnn(C)c3)c2)ncc1-c1cnn(C)c1 [Example 141]	100 to 1000	1000 to 5000	1000 to 5000
Cn1cc(-c2cccc(-c3ncc(-c4cnn(C)c4)c(N[C@H]4CC[C@H](N)CC4)n3)c2)cn1 [Example 143]	< 100	100 to 1000	100 to 1000
Cc1nnc(-c2cnc(-c3cccc(-c4cnn(C)c4)c3)nc2NCCN2CCOCC2)s1 [Example 146]	< 100	> 5000	1000 to 5000
Cn1cc(-c2cccc(-c3ncc(-c4cnn(C)c4)c(N[C@H]4CC[C@H](O)CC4)n3)c2)cn1 [Example 149]	< 100	100 to 1000	100 to 1000
Cn1cc(-c2cccc(-c3ncc(-c4ccn(C)n4)c(NC4C5CCCC4CC(N)C5)n3)c2)cn1 (stereo not drawn) [Example 152]	< 100	100 to 1000	100 to 1000
Cn1cc(-c2cccc(-c3ncc(-c4cnn(C)c4)c(NC4C5CCCC4CC(N)C5)n3)c2)cn1 (stereo not drawn) [Example 153]	< 100	100 to 1000	100 to 1000
Cn1cc(-c2cccc(-c3ncc(-c4cnn(C)c4)c(NC[C@H]4CC[C@H](O)CC4)n3)c2)cn1 [Example 156]	< 100	100 to 1000	100 to 1000
Cn1cc(-c2cccc(-c3ncc(-c4cnn(C)c4)c(NC4CC5(CCN(S(C)(=O)=O)C5)C4)n3)c2)cn1 (stereo not drawn) [Example 169]	< 100	100 to 1000	> 5000
Cn1cc(-c2cccc(-c3ncc(-c4cnn(C)c4)c(N[C@@H]4CCN(S(C)(=O)=O)C4)n3)c2)cn1 [Example 171]	< 100	< 100	1000 to 5000
Cn1cc(-c2cccc(-c3ncc(-c4cnn(C)c4)c(NCCCNS(C)(=O)=O)n3)c2)cn1 [Example 179]	< 100	100 to 1000	1000 to 5000
Cn1cc(-c2cccc(-c3ncc(-c4cnn(C)c4)c(NCC4CC(O)C4)n3)c2)cn1 (stereo not drawn) [Example 181]	< 100	100 to 1000	1000 to 5000
Cn1cc(-c2cccc(-c3ncc(-c4cnn(C)c4)c(N[C@H]4CC[C@H](NS(C)(=O)=O)CC4)n3)c2)cn1 [Example 182]	< 100	< 100	100 to 1000
Cn1cc(-c2cccc(-c3ncc(-c4cnn(C)c4)c(N[C@H]4C[C@@H](NS(C)(=O)=O)C4)n3)c2)cn1 [Example 183]	< 100	100 to 1000	1000 to 5000
Cc1nnc(-c2cnc(-c3cccc(-c4cnn(C)c4)c3)nc2NCCNS(C)(=O)=O)s1 [Example 184]	< 100	100 to 1000	100 to 1000
Cn1cc(-c2cccc(-c3ncc(-c4cnn(C)c4)c(N[C@H]4CC[C@H](N)C4)n3)c2)cn1 [Example 185]	< 100	1000 to 5000	1000 to 5000
Cn1cc(-c2cccc(-c3ncc(-c4cnn(C)c4)c(NC45CCC(N)(CC4)CC5)n3)c2)cn1 [Example 186]	< 100	< 100	100 to 1000

SMILES	IC50 (IRAK4) [nM]	IC50 [1] [nM]	IC50 [2] [nM]
Cn1cc(-c2cccc(-c3ncc(-c4cnn(C)c4)c(NC45CCC(NS(C)(=O)=O)(CC4)CC5)n3)c2)cn1 [Example 187]	< 100	< 100	100 to 1000
Cn1cc(-c2cccc(-c3ncc(-c4cnn(C)c4)c(NC4CC(CN)C4)n3)c2)cn1 (stereo not drawn) [Example 188]	< 100	< 100	1000 to 5000
Cn1cc(-c2cccc(-c3ncc(-c4cnn(C)c4)c(N[C@H]4CC[C@H](NS(C)(=O)=O)C4)n3)c2)cn1 [Example 190]	< 100	< 100	1000 to 5000
Cn1cc(-c2cccc(-c3ncc(-c4cnn(C)c4)c(NC4CCC(CN)CC4)n3)c2)cn1 (stereo not drawn) [Example 194]	< 100	100 to 1000	100 to 1000
Cn1cc(-c2cccc(-c3ncc(-c4cnn(C)c4)c(N[C@H]4C[C@@H](CNS(C)(=O)=O)C4)n3)c2)cn1 [Example 195, N-(3-{5-(1-Methyl-1H-pyrazol-4-yl)-2-[3-(1-methyl-1H-pyrazol-4-yl)-phenyl]-pyrimidin-4-ylamino}-cyclobutylmethyl)-methanesulfonamide]	< 100	< 100	1000 to 5000
Cn1cc(-c2cccc(-c3ncc(-c4cnn(C)c4)c(N[C@H]4C[C@H](CNS(C)(=O)=O)C4)n3)c2)cn1 [Example 196, N-(3-{5-(1-Methyl-1H-pyrazol-4-yl)-2-[3-(1-methyl-1H-pyrazol-4-yl)-phenyl]-pyrimidin-4-ylamino}-cyclobutylmethyl)-methanesulfonamide]	100 to 1000	100 to 1000	1000 to 5000
Cn1cc(-c2cccc(-c3ncc(-c4cnn(C)c4)c(NC4CC5CCC4N5S(C)(=O)=O)n3)c2)cn1 (stereo not drawn) [Example 199]	< 100	100 to 1000	100 to 1000
Cn1cc(-c2cccc(-c3ncc(-c4cnn(C)c4)c(N[C@H]4CCC[C@H](O)[C@@H]4O)n3)c2)cn1 [Example 208, (1S,2R,3S)-3-{5-(1-Methyl-1H-pyrazol-4-yl)-2-[3-(1-methyl-1H-pyrazol-4-yl)-phenyl]-pyrimidin-4-ylamino}-cyclohexane-1,2-diol]	< 100	100 to 1000	100 to 1000
Cc1nnc(-c2cnc(-c3cccc(-c4cnn(C)c4)c3)nc2NC2CCC(NS(=O)(=O)C3CC3)CC2)s1 (stereo not drawn) [Example 209]	< 100	< 100	100 to 1000
CC(C)Nc1nc(-c2cccc(-c3cnn(C)c3)c2)ncc1-c1nnc(C2CCNCC2)s1 [Example 210]	< 100	100 to 1000	100 to 1000
CC(=O)NC[C@H]1C[C@@H](Nc2nc(-c3cccc(-c4cnn(C)c4)c3)ncc2-c2cnn(C)c2)C1 [Example 211, N-(3-{5-(1-Methyl-1H-pyrazol-4-yl)-2-[3-(1-methyl-1H-pyrazol-4-yl)-phenyl]-pyrimidin-4-ylamino}-cyclobutylmethyl)-acetamide]	100 to 1000	100 to 1000	1000 to 5000
Cn1cc(-c2cccc(-c3ncc(-c4cnn(C)c4)c(NCCCS(C)(=O)=O)n3)c2)cn1 [Example 213]	< 100	< 100	100 to 1000
Cc1nnc(-c2cnc(-c3cccc(-c4cnn(C)c4)c3)nc2NC2CCC(F)(F)CC2)s1 [Example 214]	< 100	> 5000	1000 to 5000
Cc1ccc(-c2cnc(-c3cccc(-c4cnn(C)c4)c3)nc2NC2CCN(S(C)(=O)=O)CC2)cn1 [Example 215]	< 100	100 to 1000	100 to 1000
Cc1nnc(-c2cnc(-c3cccc(-c4cnn(C)c4)c3)nc2NCC(O)C(F)(F)F)s1 (stereo not drawn) [Example 216]	< 100	100 to 1000	100 to 1000
Cn1cc(-c2cccc(-c3ncc(-c4cnn(C)c4)c(NCC4CCCOC4)n3)c2)cn1 (stereo not drawn) [Example 217]	< 100	100 to 1000	1000 to 5000
Cn1cc(-c2cccc(-c3ncc(-c4cnn(C)c4)c(N4CCC(O)CC4)n3)c2)cn1 [Example 219]	< 100	100 to 1000	1000 to 5000
Cn1cc(-c2cccc(-c3ncc(-c4cnn(C)c4)c(N[C@H]4CC[C@@H](O)CC4)n3)c2)cn1 [Example 221]	< 100	100 to 1000	100 to 1000
Cn1cc(-c2cccc(-c3ncc(-c4cnn(C)c4)c(NC[C@H]4CCCC[C@H]4O)n3)c2)cn1 [Example 225]	< 100	100 to 1000	100 to 1000
Cn1cc(-c2cccc(-c3ncc(-c4cnn(C)c4)c(N[C@H]4CC[C@@H](N5CCOCC5)CC4)n3)c2)cn1 [Example 233]	< 100	100 to 1000	100 to 1000
Cn1cc(-c2cccc(-c3ncc(-c4cnn(C)c4)c(NC4CCCC4O)n3)c2)cn1 (stereo not drawn) [Example 238]	< 100	100 to 1000	100 to 1000
Cn1cc(-c2cccc(-c3ncc(-c4cnn(C)c4)c(N4CCC(N)CC4)n3)c2)cn1 [Example 239]	100 to 1000	100 to 1000	100 to 1000
